How the values were obtained:
[1] = system: GR-GFP chimera; assay: Nuclear Transfer Induction assay (NTI), monourethane ligands, HeLa cells; assay type: cell-based; details: 1 hr
Description: Conditions: HeLa cells are transiently transfected by CaPO4 with an expression vector encoding a GR-GFP chimera (5 μg in transfection cocktail, 4 cm diameter dishes, DMEM with 3% FCS). After 24 hour expression, ligand is added for 1 hr and cells are fixed with formaldehyde (5 min 4° C.) and inspected by fluorescence microscopy. Fluorescent cells are counted and divided into different classes according to ‘cytoplasmic’ (C) versus ‘nuclear’ (N) localisation of fluorescence.
First column: “Conditions”: Name of compounds added (marked at top: ‘//ligand’), and their concentration (in parentheses) and assay number (01 through 21).
Values are given as percentage of cells displaying the corresponding localisatidn, within each tested condition the sum is 100%.

[2] = Stability of C-21 ester versus C-21 urethane derivatives (TLC analysis); assay type: in vitro ADME; details: pH 5, pH 9, proteinase K (pH 7.8, 50 μg/ml), dispase (2.4 U/ml), cellular extracts, DMEM/10% FCS
Description: b) water buffered to pH 9;
c) water buffered to pH 5;
e) proteinase K (pH 7.8; 50 μg/ml);
After 15 hours of incubation each sample is separately extracted with 400 μl Ethyl acetate, evaporated under N2-flow, redissolved in 20 μl Ethyl acetate and analysed by TLC analysis: stationary phase: Alugram SIL G-25 UV254 (Macherey Nagel AG); mobile phase: Ethyl acetate-MeOH-Acetone (3-1-3).

[3] = system: pBR322, linearized with HindIII; assay: DNA cross-linking by 365 nm UV irradiation, alkaline gel electrophoresis; assay type: biochemical; details: 5 nmoles, 1 microgram DNA, 20 min 365 nm UV
Description: DNA: CsCl purified pBR322, linearized with HindIII and resuspended in TE at a concentration of 30 nanogram/microliter hormone derivative: cortisol-C4psoralen resuspended in 100% methanol at a concentration of 10 exp(−3) Molar psoralen (Fluka) resuspended in 100% ethanol at a concentration of 10 exp(−3)Molar.
Irradiation buffer: 50 mM Tris (pH=7.5), 0.1 mM EDTA, 10 mM NaCl, 10 mM MgCl2 crosslinker apparatus: Bio-Link (BLX) equipped with 4 UV lamps (T-8.L, 365 nanometer nominal wave length) 1 microgram of DNA (in 33 microliter) is mixed at room temperature with 5 nmoles cortisol-C4-psoralen or plain psoralen (either in 5 microliter) and 33 microliter irradiation buffer and pipetted into a well (final volume: 71 microliter) The 96× wells plate is then covered by its plastic lid and put on top of an ice-bed in a plastic box inside the crosslinker apparatus. The cooled microwell plate is irradiated for 20 min with 365 nm UV light (corresponds to an approximate value of 16 joules/square cm). The cross-linked products are then precipitated 2 times with ethanol and resuspended in TE. The products are compared to non-irradiated samples by alkaline gel electrophoresis, where cross-linked DNA maintains its double-stranded molecular weight.

[4] = system: 3Y1 cells; assay: Transfection enhancement, CMV-LacZ reporter, CaPO4 transfection of 3Y1 cells; assay type: cell-based, rat; details: 5 μg reporter, 3Y1
Description: Conditions: 3Y1 cells are transfected with an expression vector that is constitutively expressing the reporter gene LacZ (CMV-LacZ). Transfection conditions are identical throughout the various samples (total 10-12 μq DNA for 4 cm dishes). In some samples the DNA used for the transfection cocktail is pre-incubated with various conjugates at the given concentrations. The concentrations are calculated to give from 10−8 to 10−6 M after dispersing the CaPO4 precipitate in the recipient dish (5 ml volume). Transfection is performed O/N and after rinsing of the precipitate the cells are further incubated for 24 hours. LacZ levels are determined from cell extracts with a chemiluminescence LacZ enzyme assay (Galactolight plus. Tropix). The relative luminescence from each extract is given in RLU/mg*1000.
Cell culture. Cells are cultivated in DMEM supplemented with serum and antibiotica according to standard conditions (typically 10% FCS and Pen/Strep as antibiotica). At the day of transfection, cells are trypsinized and seeded at around 25-30% confluency. Cells are allowed to adhere to dish for 4-6 hours prior to transfection.
DNA pre-incubation (example for conditions that give5×10 exp (−6) Molar final concentration of the CL-C4-EtBr conjugate):
5 microgram of CMV-LacZ DNA (in 10 microliter TE) are mixed with 10 nmoles of hormone derivative (10 microliters stock solution) and incubated for 10 min at room temperature (final volume: 20 ul). The DNA/cortisol-C4-ethidum mix is then supplemented with 7 micrograms sheared calf thymus carrier DNA (in 14 microliters TE) and bidistilled water to give a final volume of 125 microliters.
Transfection by CaPO4: to each transfection sample (125 microliter volume DNA+water). 125 microliters of Ca ++ mix are added, and the mix is incubated for 5-10 min at room temperature. Each sample is then supplemented with 250 microliter of Pi-mix (with simultaneous mixing by up-down pipetting) and is further incubated 10 minutes at room temperature after which the cocktail is poured on top of the medium (5 ml) of each cell culture dish (4 cm diameter). The optimal time of incubation after Pi-mix addition is pre-determined by prior evaluation (size of the precipitate) of parallel samples. The precipitate is allowed to deposit onto the cells for 15 hours (incubation of 37 degrees, 5% CO2). The cells are then rinsed twice with Tris-buffered Saline, supplemented with fresh medium and further incubated under standard conditions. To analyze LacZ reporter gene function, the cells are either fixed or harvested 24 hours after precipitate removal.
Variation of parameters: samples in which the C1-C4-EtBr conjugates (or control compounds) are used at different concentrations, are similarly treated, except that the concentration of the stock solution in ethanol is correspondingly varied.

| SMILES | C < N, percentage of cells ([1]; ligand 1.10-6M) [%] | C << N, percentage of cells ([1]; ligand 1.10-6M) [%] | C = N, percentage of cells ([1]; ligand 1.10-6M) [%] | C > N, percentage of cells ([1]; ligand 1.10-6M) [%] | C >> N, percentage of cells ([1]; ligand 1.10-6M) [%] | C < N, percentage of cells ([1]; ligand 1.10-7M) [%] | C << N, percentage of cells ([1]; ligand 1.10-7M) [%] | C = N, percentage of cells ([1]; ligand 1.10-7M) [%] | C > N, percentage of cells ([1]; ligand 1.10-7M) [%] | C >> N, percentage of cells ([1]; ligand 1.10-7M) [%] | stability of urethane bond between steroid moiety, spacer and DNA binder [2] | DNA cross-linking efficiency [3] | light units (relative luminescence, LacZ) ([4]; ligand 10^-6M) [RLU/mg*1000] | light units (relative luminescence, LacZ) ([4]; ligand 10^-7M) [RLU/mg*1000] | light units (relative luminescence, LacZ) ([4]; ligand 10^-8M) [RLU/mg*1000] |
| --- | --- | --- | --- | --- | --- | --- | --- | --- | --- | --- | --- | --- | --- | --- | --- |
| Cc1oc2c(C)c3oc(=O)cc(C)c3cc2c1CNC(=O)CCCCCCCCCCNC(=O)OCC(=O)[C@@]1(O)CCC2C3CCC4=CC(=O)CCC4(C)C3C(O)CC21C (some centres unmarked) [CL-C12-Pso] | 53 | 22 | 25 | 0 | 0 | 3 | 0 | 52 | 40 | 5 | stable | – | – | – | – |
| Cc1oc2c(C)c3oc(=O)cc(C)c3cc2c1CNC(=O)CCNC(=O)OCC(=O)[C@@]1(O)CCC2C3CCC4=CC(=O)CCC4(C)C3C(O)CC21C (some centres unmarked) [CL-C4-Pso] | 63 | 8 | 29 | 0 | 0 | 5 | 0 | 75 | 20 | 0 | – | as efficient as cross-linking with free psoralen | – | – | – |
| COC(=O)CCNC(=O)OCC(=O)[C@@]1(O)CCC2C3CCC4=CC(=O)CCC4(C)C3C(O)CC21C (some centres unmarked) [CL-C4] | – | – | – | – | – | – | – | – | – | – | – | – | 3750 | 1625 | 2500 |
| Cc1oc2c(C)c3oc(=O)cc(C)c3cc2c1CNC(=O)OCCOCCNC(=O)OCCOCCNC(=O)OCC(=O)[C@@]1(O)[C@H](C)CC2C3CCC4=CC(=O)C=CC4(C)[C@@]3(F)C(O)CC21C (some centres unmarked) [DEX-O-O-PSO] | – | – | – | – | – | – | – | – | – | – | stable | – | – | – | – |
